Reference: US9878984B2, “Anti-cancer compounds” (NORTHWESTERN UNIVERSITY, priority 2008, dated 2018)
“Also recorded” adds a separate entry of the source.

Key:
Format in all cases: cell-based, human
HeLa cells [1] = experiment: Perinucleolar compartment (PNC) prevalence reduction; conditions: for PNC prevalence reduction at [GI50%]: [GI50%] for 72 hr
Protocol: Perinucleolar Compartment (PNC) Reduction: HeLa cells (PNC prevalence ˜85%) were plated 5,000/well in glass bottom 96 well plates and allowed to attach for 8 hr. The cells were then treated with compounds at the respective [GI50%] for 72 hr and [GI99%] for 20 hr for each compound (total media volume was 200 μL/well with 1% DMSO). After treatment cells were immunofluorescently stained as previously described, but with a Texas Red labeled secondary antibody (Jackson) instead of a FITC labeled secondary antibody. PNC prevalence (% of non-apoptotic/non-mitotic cells with 1 or more PNCs) was determined by scoring >200 cells per well with fluorescent microscope (60× objective) and images were acquired with the digital camera and image acquisition software previously mentioned. Scale bar=10 μm. Data are expressed as the average PNC prevalence (% control) of three individual experiments.
The PNC is a unique structural marker that it is only found in malignantly transformed cancer cells, irrespective of tissue origin, and indicates cells that are capable of metastasis. […] Previous studies indicate that the PNC likely conveys a functional metastatic advantage to cancer cells. The PNC prevalence (% of cells with one or more PNC) in human breast cancer positively correlates with the progression of the disease and is always near 100% in distant metastases. […] The PNC prevalence reduction was determined for amonafide and A1-A9 at the respective [GI50%] and [GI99%] doses in HeLa cells, which have a high PNC prevalence of ˜85%.

HeLa cells [2] = experiment: Transwell invasion assay; conditions: [GI99%], matrigel, 20 hr
Protocol: Transwell Invasion Assay: HeLa cells were plated at 250,000 per 35 mm well and allowed to attach for 8 hr. The cells were washed with PBS and then treated for 4 hr with the [GI99%] of each compound (or 1% DMSO—vehicle control) in serum free media to decrease the number of invading cells in the beginning of the experiment due to a preliminary lack of drug exposure. The cells were then trypsinized and counted by trypan blue exclusion with a hemacytometer (Sigma—St. Louis, Mo.). Eight micron pore size control well inserts for 12 well plates (BD Biosciences) were coated with 100 μL 1 mg/mL matrigel (Sigma—St. Louis, Mo.) and allowed to solidify at room temperature for 1 hr. The excess matrigel was aspirated and the inserts were gently washed with PBS. The cells were seeded at a density of 300,000 per insert well in a volume of 500 μL serum free media containing a derivative or vehicle. The inserts were then placed in wells containing 700 μL serum free media with the respective compound. After 20 hr the cells on the top of the membranes were gently removed with a cotton swab, the membranes then were fixed in methanol for 1 min, stained in Gills No. 3 Hematoxylin (Sigma—St. Louis, Mo.) for 5 min, rinsed in tap water, and allowed to dry overnight. The membranes were excised, mounted on slides, and the cells were counted under the 40× objective of a bright field microscope. The data are expressed as the average total number of invading cells counted in 20 fields of each membrane, as standardized to the vehicle control, from six experiments.
Effect of derivatives on the malignant phenotype—invasion assay: If A1-A9 have differential targets, DNA binding specificity, or downstream effects they may differentially alter the malignant behavior of cells. Also, anti-cancer compounds can be efficacious against tumors in other ways besides inhibiting growth and inducing death of cancer cells; they can also alter the behavior of malignant cells. Therefore, the ability of A1-A9 and amonafide to alter the invasive behavior of cancer cells in a transwell (also known as Boyden chamber) invasion assay was evaluated, which determines the ability of cells to migrate through a proteinacious gel. This behavior is considered to be representative of cancer cell invasion through the basement membrane of the primary tumor environment. In this assay, treated cells are seeded on to the top of the matrigel-coated porous membrane, allowed to invade through the proteinacious gel onto the underside of the membrane, and then counted.

[3] = test system: Normal cells (PBMC, HUVEC, and WI-38); experiment: Cancer cell selective growth inhibition (cancer cells vs normal cells); conditions: 72 hr MTS
Protocol: […] Peripheral blood mononuclear cells (PBMCs) were voluntarily collected from a healthy laboratory worker by standard sterile phlebotomy techniques and isolated using Vacutainer CPT collection tubes (BD Biosciences—Bedford, Mass.). PBMCs were isolated freshly for each experiment. All DMEM and RPMI-1640 media was supplemented with 10% FBS (Atlanta Biologicals—Lawrenceville, Ga.) and 100 U/mL penicillin and streptomycin (Invitrogen). HUVEC (Human umbilical vein endothelial cells) were cultured in EGM-2 media with supplements provided in the manufacturers BulletKit (Lonza—Walersville, Md.). All cells were maintained at 37° C. and in a 5% CO2 atmosphere.
Growth Inhibition Assays: HeLa, MDA-MB-231, PC-3M, WI-38, and HUVEC cells were plated at 5,000 cells per well in 96 well plates and allowed to attach for 20 hr (8 hr for HeLa). The media was removed and 198 μL of fresh media was added to each well. […] PBMCs were isolated and plated at 100,000 per well in 96 well plates with a volume of 197 μL. They were allowed to settle in the media for 20 hr, at which point 1 μL of 1 mg/mL phytohemagglutinin (Sigma—St. Loius Mo.) in PBS was added to stimulate proliferation (final concentration of 5 μg/mL). […] Cell proliferation was measured at t=0 (time at start of treatment) and t=72 hr using MTS AQueous non-radioactive proliferation assay (Promega—Madison, Wis.). This assay utilizes the metabolic conversion of yellow tetrazolium to a purple formazan by live cells and the color change is proportional to the number of cells. […] The absorbance at 490 nm in each well was read with a Spectramax 250 plate reader (Molecular Devices—Sunnyvale, Calif.). […] Data were fit to one site dose response curves in order to obtain specific growth inhibitory concentrations and the relative standard errors of the mean for these concentrations were calculated by the XLfit4 software. Statistical significance (p value) for the selectivity and all subsequent assays was determined with the two tailed homoscedastic Student's t-test. […]

| Structure (SMILES) | PNC prevalence reduction at [GI50%] (HeLa cells [1]) | invasive behavior (% invading cells vs vehicle) (HeLa cells [2]) | cancer cell selective growth inhibition (selectivity) [3] | PNC prevalence reduction at [GI99%] (HeLa cells [1]; [GI99%] for 20 hr) |
| --- | --- | --- | --- | --- |
| CN(C)CCN1C(=O)c2cccc3c(N)ccc(c23)C1=O [A1, 6-amino-2-[2-(dimethylamino)ethyl]-1H-benz[de]isoquinoline-1,3(2H)-dione] | able effectively reduce the PNC; also recorded: can significantly reduce PNC prevalence | did not significantly alter the invasive behavior of HeLa cells compared to the control | near identical to amonafide |  |
| CN(C)CCN1C(=O)c2cccc3cc(N)cc(c23)C1=O [amonafide, reference compound] | able effectively reduce the PNC; also recorded: can significantly reduce PNC prevalence | did not significantly alter the invasive behavior of HeLa cells compared to the control | slightly more potent (but not with statistical significance) or equally potent at inhibiting the growth of cancer cells over normal cells | able to greatly reduce the PNC prevalence |
